From EP0091090A2, “Bipyridine substituted imidazolidene copper complex and its use in food-producing animals, and bipyridine, 2,2'-(2-imidazolidinylidene) di-copper complex and use in animals” (INTERNATIONAL MINERALS & CHEMICAL CORPORATION, priority 1982, dated 1983)

Tested on: rumen fluid batch culture
Assay: Rumen fluid batch culture test: volatile fatty acid, gas (CH4 + H2), protein and amino acid accumulation (Example 2)
Assay type: cell-based, steers
Set-up: HFo (formate) / HAc (acetate) / HPr (propionate) / HiBu (isobutyrate) / HBu (butyrate) / HiVal (isovalerate) / Total / Caloric Value of H2 / Caloric Value of HFo / Caloric Value of HAc / Caloric Value of HPr / Caloric Value of HiBu / Caloric Value of HBu / Caloric Value of HiVal / Caloric Value of CH3: unit not given here
Method: The above Formula IV composition was tested to determine its effectiveness as a feed additive for ruminants. The initial tests were in rumen fluid batch culture systems to determine the effect of the compound on volatile fatty acid/methane ratios (VFA/CH4). […] Test Procedure: A 50/50 mixture of ground corn and ground alfalfa was used as the substrate for the subject rumen fluid batch culture test. The compound (Formula IV ) was present in the rumen fluid in three separate test samples at 8.33, 25 and 75 ppm, respectively. On day 1, rumen fluid was obtained from mature fistulated steers on 50/50 concentrate/roughage diets. The rumen fluid (RF) was strained through three layers of gauze cloth and equilibrated with C02 gas. Wheaton serum vials (125 ml) were prepared ahead with 20 ml continuous batch buffer and 100 mg 50/50 ground corn/ground alfalfa. Controls and compounds (dissolved in acetone) were set up according to desired levels. The vials were kept under C02 gas until 20 ml of the strained RF was added. The vials were sealed and incubated at 39°C for 24 hours in a hot water bath. On successive days, gas samples (0.1 ml) were drawn for gas chromatography analysis before transferring 20 ml of the batch culture to another vial containing 20 ml of buffer, 100 mg substrate, and the corresponding compound. The remaining 20 ml was inoculated with 2 ml 6N HC1 and centrifuged at 15,000 rpm for 15 minutes. Ether extracts were prepared for volatile fatty acid (VFA) analysis. Some minor adjustments were made in the termperatures on the Hewlett-Packard 5750 Gas-Liquid Chromatograph used for VFA analysis when the glass column used was changed from 1/4 inch diameter to 1/8 inch diameter. Injection Port = 220°C Column Oven = 170°C Flame Detector = 250°C Only 4 minutes was needed to record the sample instead of the previous 7 minutes.

[1] = 75 μg/ml, total produced on Day 10
[2] = all levels tested (8.33, 25 and 75 ppm), versus control

Substance: 2,2'-(4,5-diphenyl-2H-imidazol-2-ylidene)bispyridine with CuCl2(1/1) [Formula IV Compound]
- HPr (propionate) (75 µg/ml, day 5): 17.24
- HiBu (isobutyrate) (75 µg/ml, day 5): 0.51
- HiVal (isovalerate) (75 µg/ml, day 5): 0.26
- Total (75 µg/ml, day 5): 47.03
- AA (75 µg/ml, day 6): 0.20 µ Moles/ml
- CH4 (75 µg/ml, day 6): 67 µ Moles
- H2 (75 µg/ml, day 6): 0 µ Moles
- HAc (acetate) (75 µg/ml, day 6): 25.01
- HBu (butyrate) (75 µg/ml, day 6): 1.78
- HFo (formate) (75 µg/ml, day 6): 0.51
- HPr (propionate) (75 µg/ml, day 6): 16.43
- HiBu (isobutyrate) (75 µg/ml, day 6): 0.39
- HiVal (isovalerate) (75 µg/ml, day 6): 0.58
- Protein (75 µg/ml, day 6): 0.02 mg/mL
- Total (75 µg/ml, day 6): 44.68
- AA (75 µg/ml, day 7): 0.26 µ Moles/ml
- CH4 (75 µg/ml, day 7): 3 µ Moles
- H2 (75 µg/ml, day 7): 0 µ Moles
- HAc (acetate) (75 µg/ml, day 7): 19.59
- HBu (butyrate) (75 µg/ml, day 7): 9.9
- HFo (formate) (75 µg/ml, day 7): 3.17
- HPr (propionate) (75 µg/ml, day 7): 14.41
- HiBu (isobutyrate) (75 µg/ml, day 7): 0.83
- HiVal (isovalerate) (75 µg/ml, day 7): 0.10
- Protein (75 µg/ml, day 7): 0.01 mg/mL
- Total (75 µg/ml, day 7): 48.01
- AA (75 µg/ml, day 8): 0.31 µ Moles/ml
- CH4 (75 µg/ml, day 8): 3 µ Moles
- H2 (75 µg/ml, day 8): 0 µ Moles
- HAc (acetate) (75 µg/ml, day 8): 17.86
- HBu (butyrate) (75 µg/ml, day 8): 11.25
- HFo (formate) (75 µg/ml, day 8): 3.52
- HPr (propionate) (75 µg/ml, day 8): 14.08
- HiBu (isobutyrate) (75 µg/ml, day 8): 2.61
- HiVal (isovalerate) (75 µg/ml, day 8): 0
- Protein (75 µg/ml, day 8): 0 mg/mL
- Total (75 µg/ml, day 8): 49.31
- AA (75 µg/ml, day 9): 0.34 µ Moles/ml
- CH4 (75 µg/ml, day 9): 0 µ Moles
- H2 (75 µg/ml, day 9): 11 µ Moles
- HAc (acetate) (75 µg/ml, day 9): 18.93
- HBu (butyrate) (75 µg/ml, day 9): 9.21
- HFo (formate) (75 µg/ml, day 9): 2.61
- HPr (propionate) (75 µg/ml, day 9): 13.41
- HiBu (isobutyrate) (75 µg/ml, day 9): 3.16
- HiVal (isovalerate) (75 µg/ml, day 9): 0.26
- Protein (75 µg/ml, day 9): 0 mg/mL
- Total (75 µg/ml, day 9): 50.56
- AA (75 µg/ml, day 10): 0.47 µ Moles/ml
- CH4 (75 µg/ml, day 10): 0 µ Moles
- H2 (75 µg/ml, day 10): 14 µ Moles
- HAc (acetate) (75 µg/ml, day 10): 18.71
- HBu (butyrate) (75 µg/ml, day 10): 8.16
- HFo (formate) (75 µg/ml, day 10): 2.52
- HPr (propionate) (75 µg/ml, day 10): 14.57
- HiBu (isobutyrate) (75 µg/ml, day 10): 3.74
- HiVal (isovalerate) (75 µg/ml, day 10): 0.27
- Protein (75 µg/ml, day 10): 0 mg/mL
- Total (75 µg/ml, day 10): 47.97
- Caloric Value of CH3 (75 µg/ml, produced on Day 10): 0
- Caloric Value of H2 (75 µg/ml, produced on Day 10): 0.96
- Caloric Value of HAc (75 µg/ml, produced on Day 10): 77.39
- Caloric Value of HBu (75 µg/ml, produced on Day 10): 74.05
- Caloric Value of HFo (75 µg/ml, produced on Day 10): 3.06
- Caloric Value of HPr (75 µg/ml, produced on Day 10): 114.76
- Caloric Value of HiBu (75 µg/ml, produced on Day 10): 31.54
- Caloric Value of HiVal (75 µg/ml, produced on Day 10): 3.80
- Caloric Value, Total (VFA's) (75 µg/ml, produced on Day 10): 304.60
- Total Cal in VFA & Gas (75 µg/ml, produced on Day 10): 305.56 cal
- CH4 produced on Day 10 [1]: 0
- H2 produced on Day 10 [1]: 14
- HAc (acetate) produced on Day 10 [1]: 369.6
- HBu (butyrate) produced on Day 10 [1]: 142.4
- HFo (formate) produced on Day 10 [1]: 48.8
- HPr (propionate) produced on Day 10 [1]: 314.4
- HiBu (isobutyrate) produced on Day 10 [1]: 86.4
- HiVal (isovalerate) produced on Day 10 [1]: 5.6
- Total VFA's produced on Day 10 [1]: 994.2
- Total energy in the end products (8.33 and 25 µg/ml): less than the control
- butyrate produced (8.33 and 75 µg/ml (not 25 µg/ml), versus control): more butyrate was produced
- methane (8.33 ppm): decreased slightly
- hydrogen production (25 and 75 ppm, first 6 days): no hydrogen production
- methane (25 and 75 ppm, first 6 days): slight decreases
- hydrogen produced (25 and 75 ppm, seventh day): some hydrogen produced
- methane (25 and 75 ppm, seventh day): dropped drastically
- increasing the number of calories available from the animals' feed (75 ppm dosage level, Table 3): most effective amount
- shift in volatile fatty acids produced (all dosage levels, Table 2): desired shift in volatile fatty acids produced away from acetate towards propionate
- Acetate [2]: decreased
- propionate [2]: increased
- activity in rumen fluid batch culture tests (tests of Examples 2 and 3): activity comparable to monensin
